The values that follow come from US20230406864A1, “7-AZOLE SUBSTITUTED 2-AMINOQUINAZOLINE INHIBITORS OF HPK1” (MERCK SHARP & DOHME LLC, priority 2020, published 2023).

In this assay the target is T1, Human HPK1, catalytic domain (Homo sapiens, UniProt Q92918).
T1 construct: purchased Cama (so in the source)
T1 sequence (Q92918 1-346): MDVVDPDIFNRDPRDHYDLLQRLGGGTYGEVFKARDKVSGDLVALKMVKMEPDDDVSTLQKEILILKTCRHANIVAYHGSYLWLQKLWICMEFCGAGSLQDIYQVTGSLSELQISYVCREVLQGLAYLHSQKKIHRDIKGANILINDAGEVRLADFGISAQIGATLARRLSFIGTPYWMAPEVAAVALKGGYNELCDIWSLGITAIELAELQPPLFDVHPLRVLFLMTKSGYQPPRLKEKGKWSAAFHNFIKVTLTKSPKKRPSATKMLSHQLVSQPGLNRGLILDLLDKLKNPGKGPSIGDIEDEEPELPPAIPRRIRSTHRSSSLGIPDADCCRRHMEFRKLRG
Nature of the assay: HPK1-SLP76 TR-FRET assay. The class given is biochemical. Particulars: HPK1 kinase domain 0.075 nM; full length SLP-76 10 nM; ATP 10 μM; 30 min preincubation; 60 min reaction; room temperature. On the technique in general: In TR-FRET formats the signal depends on donor and acceptor labels being close together.
One may read the IC50 as the midpoint of a concentration-inhibition curve. With `Cc1c(-c2cc3nc(Nc4cnn(C5CCN(C)C5=O)c4)ncc3c(N)c2F)cnc2c1NCCO2` (single isomer, unassigned) [Example 2-19, (S or R)-3-(4-{[5-amino-6-fluoro-7-(8-methyl-2,3-dihydro-1H-pyrido[2,3-b][1,4]oxazin-7-yl)quinazolin-2-yl]amino}-1H-pyrazol-1-yl)-1-methylpyrrolidin-2-one], the IC50 is 0.15 nM.

`Cc1c(-c2cc3nc(Nc4cnn(C5CCN(C)C5=O)c4)ncc3c(N)c2F)cnc2c1NCCO2` (single isomer, unassigned) [Example 2-21, (S or R)-3-(4-{[5-amino-6-fluoro-7-(8-methyl-2,3-dihydro-1H-pyrido[2,3-b][1,4]oxazin-7-yl)quinazolin-2-yl]amino}-1H-pyrazol-1-yl)-1-methylpyrrolidin-2-one] showed an IC50 of 0.35 nM.

Turning to `Cc1c(-c2ccc3cnc(Nc4cnn(C5COC5)c4)nc3c2)cnc2c1NCCO2` [Example 1-1, 7-(8-methyl-2,3-dihydro-1H-pyrido[2,3-b][1,4]oxazin-7-yl)-N-[1-(oxetan-3-yl)-1H-pyrazol-4-yl]quinazolin-2-amine], the midpoint of inhibition, the IC50, lay at 1.2 nM.

The compound `Cc1c(-c2ccc3cnc(Nc4cnn(C5CC6(C5)CN(C5(C)COC5)C6)c4)nc3c2)cnc2c1NCCO2` [Example 1-2, 7-(8-methyl-2,3-dihydro-1H-pyrido[2,3-b][1,4]oxazin-7-yl)-N-{1-[2-(3-methyloxetan-3-yl)-2-azaspiro[3.3]heptan-6-yl]-1H-pyrazol-4-yl}quinazolin-2-amine] yielded an IC50 of 0.22 nM.

For the compound `CCC(=O)N1CC(n2cc(Nc3ncc4ccc(-c5cnc6c(c5C)NCCO6)cc4n3)cn2)C1` [Example 1-3, 1-[3-(4-{[7-(8-methyl-2,3-dihydro-1H-pyrido[2,3-b][1,4]oxazin-7-yl)quinazolin-2-yl]amino}-1H-pyrazol-1-yl)azetidin-1-yl]propan-1-one], 0.26 nM corresponded to half-maximal inhibition (IC50).

`Cc1c(-c2ccc3cnc(Nc4cc5n(n4)CC(=O)N(C)CC54CC4)nc3c2)cnc2c1NCCO2` [Example 1-4, 6′-methyl-2′-{[7-(8-methyl-2,3-dihydro-1H-pyrido[2,3-b][1,4]oxazin-7-yl)quinazolin-2-yl]amino}-5′,6′-dihydrospiro[cyclopropane-1,4′-pyrazolo[1,5-d][1,4]diazepin]-7′(8′H)-one] had an IC50 of 5.3 nM.

As for `Cc1c(-c2ccc3cnc(Nc4cnn(C)c4)nc3c2)cnc2c1NCCO2` [Example 1-5, 7-(8-methyl-2,3-dihydro-1H-pyrido[2,3-b][1,4]oxazin-7-yl)-N-(1-methyl-1H-pyrazol-4-yl)quinazolin-2-amine], half-maximal inhibition (IC50) required 0.71 nM.

`Cc1c(-c2ccc3cnc(Nc4cc5n(n4)CCN(C(C)C)C(=O)C5)nc3c2)cnc2c1NCCO2` [Example 1-7, 2-{[7-(8-methyl-2,3-dihydro-1H-pyrido[2,3-b][1,4]oxazin-7-yl)quinazolin-2-yl]amino}-6-(propan-2-yl)-7,8-dihydro-4H-pyrazolo[1,5-d][1,4]diazepin-5(6H)-one] had an IC50 of 0.34 nM.

On to `Cc1c(-c2ccc3cnc(Nc4cc5n(n4)CCN(CC(C)(C)O)C(=O)C5)nc3c2)cnc2c1NCCO2` [Example 1-8, 6-(2-hydroxy-2-methylpropyl)-2-((7-(8-methyl-2,3-dihydro-1H-pyrido[2,3-b][1,4]oxazin-7-yl)quinazolin-2-yl)amino)-7,8-dihydro-4H-pyrazolo[1,5-d][1,4]diazepin-5(6H)-one], for which half-maximal inhibition (IC50) was put at 0.675 nM.

`CCC(=O)N1CC(n2cc(Nc3ncc4c(N)c(F)c(-c5cnc6c(c5C)NCCO6)cc4n3)cn2)C1` [Example 2-1, 1-[3-(4-{[5-amino-6-fluoro-7-(8-methyl-2,3-dihydro-1H-pyrido[2,3-b][1,4]oxazin-7-yl)quinazolin-2-yl]amino}-1H-pyrazol-1-yl)azetidin-1-yl]propan-1-one] displayed an IC50 of 0.42 nM.

Compound `Cc1c(-c2cc3nc(Nc4cnn(C5CC6(C5)CN(C5(C)COC5)C6)c4)ncc3c(N)c2F)cnc2c1NCCO2` [Example 2-2, 6-fluoro-7-(8-methyl-2,3-dihydro-1H-pyrido[2,3-b][1,4]oxazin-7-yl)-N~2~-{1-[2-(3-methyloxetan-3-yl)-2-azaspiro[3.3]heptan-6-yl]-1H-pyrazol-4-yl}quinazoline-2,5-diamine] had an IC50 of 0.14 nM.

Compound `Cc1c(-c2cc3nc(Nc4cnn(C5CCN(C6(C)COC6)CC5)c4)ncc3c(N)c2F)cnc2c1NCCO2` [Example 2-3, 6-fluoro-7-(8-methyl-2,3-dihydro-1H-pyrido[2,3-b][1,4]oxazin-7-yl)-N~2~-{1-[1-(3-methyloxetan-3-yl)piperidin-4-yl]-1H-pyrazol-4-yl}quinazoline-2,5-diamine] registered an IC50 of 0.12 nM.

`Cc1c(-c2cc3nc(Nc4cnn(C5CC6(CNC6)C5)c4)ncc3c(N)c2F)cnc2c1NCCO2` [Example 2-4, N~2~-[1-(2-azaspiro[3.3]heptan-6-yl)-1H-pyrazol-4-yl]-6-fluoro-7-(8-methyl-2,3-dihydro-1H-pyrido[2,3-b][1,4]oxazin-7-yl)quinazoline-2,5-diamine] registered an IC50 of 0.47 nM.

As to `Cc1c(-c2cc3nc(Nc4cnn(C5CNC5)c4)ncc3c(N)c2F)cnc2c1NCCO2` [Example 2-5, N~2~-[1-(azetidin-3-yl)-1H-pyrazol-4-yl]-6-fluoro-7-(8-methyl-2,3-dihydro-1H-pyrido[2,3-b][1,4]oxazin-7-yl)quinazoline-2,5-diamine], the IC50 was determined as 0.29 nM.

For the compound `Cc1c(-c2cc3nc(Nc4cnn(CC5CC5)c4)ncc3c(N)c2F)cnc2c1NCCO2` [Example 2-6, N~2~-[1-(cyclopropylmethyl)-1H-pyrazol-4-yl]-6-fluoro-7-(8-methyl-2,3-dihydro-1H-pyrido[2,3-b][1,4]oxazin-7-yl)quinazoline-2,5-diamine], the IC50 amounted to 0.14 nM.

`Cc1c(-c2cc3nc(Nc4cnn(CC(F)(F)F)c4)ncc3c(N)c2F)cnc2c1NCCO2` [Example 2-7, 6-fluoro-7-(8-methyl-2,3-dihydro-1H-pyrido[2,3-b][1,4]oxazin-7-yl)-N~2~-[1-(2,2,2-trifluoroethyl)-1H-pyrazol-4-yl]quinazoline-2,5-diamine] registered an IC50 of 0.26 nM.

On to `Cc1c(-c2cc3nc(Nc4cnn(C5(C)CC5)c4)ncc3c(N)c2F)cnc2c1NCCO2` [Example 2-8, 6-fluoro-N~2~-[1-(1-methylcyclopropyl)-1H-pyrazol-4-yl]-7-(8-methyl-2,3-dihydro-1H-pyrido[2,3-b][1,4]oxazin-7-yl)quinazoline-2,5-diamine], for which it took 0.088 nM to reach half-maximal inhibition (IC50).

`Cc1c(-c2cc3nc(Nc4cnn(C5CC5)c4)ncc3c(N)c2F)cnc2c1NCCO2` [Example 2-9, N~2~-(1-cyclopropyl-1H-pyrazol-4-yl)-6-fluoro-7-(8-methyl-2,3-dihydro-1H-pyrido[2,3-b][1,4]oxazin-7-yl)quinazoline-2,5-diamine]: the IC50 was 0.14 nM.

In the case of `Cc1c(-c2cc3nc(Nc4cnn(C)c4)ncc3c(N)c2F)cnc2c1NCCO2` [Example 2-10, 6-fluoro-7-(8-methyl-2,3-dihydro-1H-pyrido[2,3-b][1,4]oxazin-7-yl)-N~2~-(1-methyl-1H-pyrazol-4-yl)quinazoline-2,5-diamine], the IC50 is 0.13 nM.

With `Cc1c(-c2cc3nc(Nc4cnn(C5CCNCC5)c4)ncc3c(N)c2F)cnc2c1NCCO2` [Example 2-11, 6-fluoro-7-(8-methyl-2,3-dihydro-1H-pyrido[2,3-b][1,4]oxazin-7-yl)-N~2~-[1-(piperidin-4-yl)-1H-pyrazol-4-yl]quinazoline-2,5-diamine], the concentration for half-maximal inhibition (IC50) was determined as 0.071 nM.

Take `Cc1c(-c2cc3nc(Nc4cnn(Cc5ccccc5)c4)ncc3c(N)c2F)cnc2c1NCCO2` [Example 2-12, N~2~-(1-benzyl-1H-pyrazol-4-yl)-6-fluoro-7-(8-methyl-2,3-dihydro-1H-pyrido[2,3-b][1,4]oxazin-7-yl)quinazoline-2,5-diamine]: inhibition was half-maximal at 2.8 nM (IC50).

Take `Cc1c(-c2cc3nc(Nc4cnn(CC(C)C)c4)ncc3c(N)c2F)cnc2c1NCCO2` [Example 2-13, 6-fluoro-7-(8-methyl-2,3-dihydro-1H-pyrido[2,3-b][1,4]oxazin-7-yl)-N~2~-[1-(2-methylpropyl)-1H-pyrazol-4-yl]quinazoline-2,5-diamine]: the IC50 was 0.77 nM.

Take `Cc1c(-c2cc3nc(Nc4cnn(C(C)C)c4)ncc3c(N)c2F)cnc2c1NCCO2` [Example 2-14, 6-fluoro-7-(8-methyl-2,3-dihydro-1H-pyrido[2,3-b][1,4]oxazin-7-yl)-N~2~-[1-(propan-2-yl)-1H-pyrazol-4-yl]quinazoline-2,5-diamine]: the IC50 turned out to be 0.16 nM.

Take `COC(=O)C12CC(n3cc(Nc4ncc5c(N)c(F)c(-c6cnc7c(c6C)NCCO7)cc5n4)cn3)(C1)C2` [Example 2-15, methyl 3-(4-{[5-amino-6-fluoro-7-(8-methyl-2,3-dihydro-1H-pyrido[2,3-b][1,4]oxazin-7-yl)quinazolin-2-yl]amino}-1H-pyrazol-1-yl)bicyclo[1.1.1]pentane-1-carboxylate]: the IC50 is 0.22 nM.

The compound `CCn1ncc(Nc2ncc3c(N)c(F)c(-c4cnc5c(c4C)NCCO5)cc3n2)c1C` [Example 2-16, N~2~-(1-ethyl-5-methyl-1H-pyrazol-4-yl)-6-fluoro-7-(8-methyl-2,3-dihydro-1H-pyrido[2,3-b][1,4]oxazin-7-yl)quinazoline-2,5-diamine] displayed an IC50 of 0.51 nM.

For `Cc1cc(Nc2ncc3c(N)c(F)c(-c4cnc5c(c4C)NCCO5)cc3n2)sn1` [Example 2-17, 6-fluoro-7-(8-methyl-2,3-dihydro-1H-pyrido[2,3-b][1,4]oxazin-7-yl)-N~2~-(3-methyl-1,2-thiazol-5-yl)quinazoline-2,5-diamine], the IC50 was found to be 0.38 nM.
